Experimental data reported in ChEMBL document CHEMBL1129398, “Non-peptide glycoprotein IIb/IIIa antagonists. 11. Design and in vivo evaluation of 3,4-dihydro-1 (1H)-isoquinolinone-based antagonists and ethyl ester prodrugs” (J Med Chem, 1996).

How the values were obtained:
[1] = test system: Canis familiaris; assay: Effect on inhibition of the extent of ex vivo ADP-induced aggregation in canine platelet rich plasma at dose of 0.1 mg/kg po; format: functional; details: Canis lupus familiaris
[2] = test system: Canis familiaris; assay: Effect on inhibition of the extent of ex vivo ADP-induced aggregation in canine platelet rich plasma at dose of 0.3 mg/kg po; format: functional; details: Canis lupus familiaris
[3] = test system: Canis familiaris; assay: Effect on inhibition of the extent of ex vivo ADP-induced aggregation in canine platelet rich plasma at dose of 0.5 mg/kg po; format: functional; details: Canis lupus familiaris
[4] = species: Homo sapiens; assay: in vitro inhibition of human gel-filtered platelets; format: functional
[5] = species: Homo sapiens; assay: in vitro inhibition of human gel-filtered platelets using ADP agonist; format: functional
[6] = test system: Canis familiaris; assay: Tmax was measured by calculating maximum time taken for ADP -induced platelet aggregation in canine platelet rich plasma at dose of 0.5 mg/kg po; Tmax hours; format: ADME, organism-based, Canis lupus familiaris; design: dose 0.5 mg/kg; details: dog, in vivo
[7] = species: Homo sapiens; assay: In vitro inhibition of human gel-filtered platelets; format: functional
[8] = test system: Canis familiaris; assay: Tmax was measured by calculating maximum time taken for ADP -induced plat let aggregation n canine platelet rich plasma at dose of 0.5 mg/kg po; Tmax hours; format: ADME, organism-based, Canis lupus familiaris; design: dose 0.5 mg/kg; details: dog, in vivo

| IC50 [4] [nM] | SMILES | inhibition in vivo at 0.5 mg/kg [3] [%] | other results |
| --- | --- | --- | --- |
| – | C#C[C@H](CC(=O)OCC)NC(=O)Cn1c(=O)[nH]c2ccc(N3CCNCC3)cc2c1=O | – | inhibition in vivo at 0.1 mg/kg [1]: 0% |
| – | C#C[C@H](CC(=O)OCC)NC(=O)CN1CCc2cc(F)c(N3CCNCC3)cc2C1=O | – | inhibition in vivo at 0.3 mg/kg [2]: 100% |
| – | C#C[C@H](CC(=O)O)NC(=O)CN1CCc2ccc(-c3ccncc3)cc2C1=O | – | IC50 [5]: 160 nM |
| – | C#C[C@H](CC(=O)O)NC(=O)Cn1c(=O)[nH]c2ccc(N3CCNCC3)cc2c1=O | 0 | IC50 [5]: 27 nM |
| – | CCOC(=O)C[C@H](NC(=O)CN1CCc2ccc(N3CCNCC3)cc2C1=O)c1cccnc1 | 75 | T max [6]: 2.5 |
| – | C#C[C@H](CC(=O)OCC)NC(=O)CN1CCc2ccc(C3CCNCC3)cc2C1=O | – | inhibition in vivo at 0.3 mg/kg [2]: 40% |
| – | C#C[C@H](CC(=O)O)NC(=O)Cn1cnc2ccc(N3CCNCC3)cc2c1=O | – | IC50 [5]: 330 nM |
| 35 | C#C[C@H](CC(=O)O)NC(=O)CN1CCc2ccc(N3CCNCC3)c(Cl)c2C1=O | – | – |
| – | C#C[C@H](CC(=O)O)NC(=O)Cn1ccc2ccc(N3CCNCC3)cc2c1=O | – | IC50 [5]: 81 nM |
| 6 | C#C[C@H](CC(=O)O)NC(=O)CN1CCc2ccc(C3CCNCC3)cc2C1=O | – | inhibition in vivo at 0.3 mg/kg [2]: 100% |
| – | C#C[C@H](CC(=O)OCC)NC(=O)CN1CCc2ccc(N3CCNCC3)c(Cl)c2C1=O | 100 | – |
| 19 | C#C[C@H](CC(=O)O)NC(=O)CN1CCc2cc(Cl)c(N3CCNCC3)cc2C1=O | 80 | – |
| 16 | O=C(O)C[C@@H](CCc1ccccc1)NC(=O)CN1CCc2ccc(N3CCNCC3)cc2C1=O | 20 | – |
| – | O=C(O)C[C@H](NC(=O)CN1CCc2ccc(N3CCOCC3)cc2C1=O)c1cccnc1 | – | IC50 [5]: > 300000 nM |
| 15 | C#C[C@H](CC(=O)O)NC(=O)CN1CCc2cc(F)c(N3CCNCC3)cc2C1=O | 95 | – |
| 18 | O=C(O)C[C@H](NC(=O)CN1CCc2ccc(N3CCNCC3)cc2C1=O)c1ccc[n+]([O-])c1 | – | – |
| 12 | C#C[C@H](CC(=O)O)NC(=O)CN1CCc2ccc(N3CCNCC3)cc2C1=O | – | inhibition in vivo at 0.3 mg/kg [2]: 80% |
| – | O=C(O)CCNC(=O)CN1CCc2ccc(N3CCNCC3)cc2C1=O | – | IC50 [7]: 140 nM |
| – | O=C(O)C[C@H](NC(=O)CN1CCc2ccc(N3CCNCC3)cc2C1=O)c1cccnc1 | 100 | IC50 [5]: 13 nM; T max [8]: 1 |

| SMILES | IC50 [4] [nM] | inhibition in vivo at 0.5 mg/kg [3] [%] | other results |
| --- | --- | --- | --- |
| C[C@H](CC(=O)O)NC(=O)CN1CCc2ccc(N3CCNCC3)cc2C1=O | 30 | 100 | – |
| C#C[C@H](CC(=O)O)NC(=O)CN1CCc2ccc(N3CCNCC3)cc2C1 | 320 | – | – |
| N[C@@H](CNC(=O)CN1CCc2ccc(N3CCNCC3)cc2C1=O)C(=O)O | 630 | – | – |
